Measurements from publication PMC11927176 (BMC Microbiology, 2025).

Tested on: AadA37
Assay: coupled continuous spectrophotometric assay of pyrophosphate release
Format: biochemical, Morganella morganii
Details: 5 mM ATP, 10 mM MgCl2, 50 mM HEPES pH 7.5, 37 °C

Row | Km | Structure (SMILES)
1 | 2.67 µM | CN[C@@H]1[C@H](O[C@H]2[C@H](O[C@H]3[C@H](O)[C@@H](O)[C@H](N=C(N)N)[C@@H](O)[C@@H]3N=C(N)N)O[C@@H](C)[C@]2(O)C=O)O[C@@H](CO)[C@H](O)[C@H]1O [Streptomycin]
2 | 8.17 µM | CN[C@@H]1[C@H](O)[C@H](NC)[C@H]2O[C@@]3(O)C(=O)C[C@@H](C)O[C@H]3O[C@@H]2[C@H]1O [Spectinomycin]
